{
  "source": "patent US20080221074A1",
  "about": "“Drug Screen and Treatment Method” (priority 2006, published 2008)",
  "key": {"[1]": {"test_system": "osteoblasts and osteocytes", "assay": "osteoblast and osteocyte apoptosis in vertebral bone of ovariectomized mice (TUNEL)", "format": "in vivo, Swiss Webster mice", "text": "The degree of apoptosis of osteoblasts and osteocytes in murine vertebral bone as a function of estrogen deficiency was examined. Swiss Webster mice (four months old) were ovariectomized. Twenty-eight days later, the animals were sacrificed, vertebrae were isolated, fixed and embedded, and then undecalcified in methacrylate."}, "EAE": {"test_system": "EAE", "assay": "PLP-induced EAE, treatment from clinical onset", "format": "in vivo, female SJL mice", "details": "0.1 mg q.d. po from clinical onset", "procedure": "The protocol for conducting the EAE animal model was described in (D. Auci et. al., Ann. NY. Acad. Sci. USA, 1051:730-42, 2005). Female SJL mice (6-8 week old, average body weight of 25 g) obtained from Charles-River were kept under standard laboratory conditions (non specific pathogen germ free) with ad libitum food and water and were allowed to adapt one week to their environment before commencing the study. […] EAA was induced with 200 μL of a 1:1 emulsion of 75 μg proteolipid protein (PLP) and 6 mg/mL Mycobacterium tuberculosis H37RA in complete Freund's adjuvant (CFA). The 200 μL injection was divided among four sites that drained into the auxiliary and inguinal lymphnodes. Pertussis toxin was used as a co-adjuvant and was administered i.p. at 200 ng/mouse on day zero and day two post immunization. Groups were treated with 0.1 mg of compound in 100 μL vehicle, or with vehicle alone, q.d. po (oral gavage) starting at clinical onset of disease and continuing through to day 30 post immunization. […] Clinical grading was carried out by an observer unaware of the treatment: 0=no illness, 1=flaccid tail, 2=moderate paraparesis, 3=severe paraparesis, 4=moribund state, 5=death."}, "[2]": {"test_system": "human MG-63 osteosarcoma cell line", "assay": "reversal of dexamethasone effects in MG-63 osteoblasts", "format": "cell-based", "details": "30 nM dexamethasone; compound concentration stated with each value (17α-ethynyl triol: 1 nM)"}, "[3]": {"assay": "degree of sulfation and glucuronidation (other protocols)", "format": "in vitro ADME", "details": "compared to diols", "text": "Despite that, the compound androst-5-ene-3β,7β,16α,17β-tetrol was active as described above when administered orally to mice in a diabetes treatment model. […] This activity may have arisen at least partly from the low metabolism of tetrol compounds in vivo."}, "[4]": {"test_system": "LPS-induced acute lung inflammation", "assay": "LPS-induced lung injury", "format": "in vivo, C57/BL6 mice", "details": "40 mg/Kg orally; 48 h after LPS"}, "[5]": {"test_system": "insulin sensitivity in db/db diabetic mice", "assay": "hyperinsulinemic-euglycemic clamp", "format": "in vivo", "procedure": "Glucose lowering in 8 week old db/db diabetic mice. The hyperinsulinemic-euglycemic clamp protocol was conducted to measure insulin sensitivity in vivo. In this procedure, insulin was administered to raise the insulin concentration while glucose was infused to maintain euglycemia or a fixed, normal blood glucose level (about 180 mg/dL). […] The objective of this protocol was to investigate characterize the capacity of 17α-ethynylandrost-5-ene-3β,7β,17β-triol and androst-5-ene-3β,7β,16α,17β-tetrol to ameliorate systemic insulin resistance and improve whole body glucose disposal in the hyperinsulinemic-euglycemic clamp model. The degree of skeletal muscle and hepatic insulin sensitivity and tissue specific glucose uptake were also assessed. The animals were dosed daily by oral gavage for 14 days. On Day 10 of treatment catheters were implanted in the carotid artery and jugular vein. On the day of the clamp (day 14) the compound was administered at 7:30 am.\nBody weight and glucose concentration were assessed on day 0, 7 and day 14 of treatment. On day 14 a euglycemic hyperinsulinemic clamp was performed. Food was removed at 7:30 am at 10:30 a primed continuous infusion of [3-^3H]-glucose (0.05 μCi/min). A baseline blood sample was taken at 12:50 (−10 min) and at 1:00 (0 min) a euglycemic hyperinsulinemic clamp was initiated by administering 10 mU /kg/min of insulin. Glucose was infused at a variable rate to clamp the glucose concentration at ˜180 mg/dl. A bolus of [^14C]-2deoxyglucose was given at the end of the study to assess tissue specific glucose uptake. Plasma ^14C 2-deoxyglucose was assessed at 122, 125, 130, 135, 145 min. […]\nAnalysis was conducted as follows. Plasma samples were deproteinized with Ba(OH)2 (0.3 N) and ZnSO4 (0.3 N), dried and radioactivity was assessed on scintillation counter (Packard TRICARB 2900 TR, Meriden, Conn.). […] One supernatant was directly counted to determine radioactivity from both [14C] […] A second aliquot was treated with Ba(OH)2 and ZnSO4 to remove ^14C DGP and any tracer incorporated into glycogen and then counted to determine radioactivity from free [^14C]DG(2). [^14C]DGP was calculated as the difference between the two aliquots. […] Rg, an index of tissue specific glucose uptake was calculated as previously described (E.W. Kraegen et al., Am. J. Physiol., 248:E353-E362, 1985). Whole body glucose turnover was calculated as the ratio of the ^3H glucose infusion rate (dpm/kg/min) and arterial plasma glucose specific activity (dpm/mg). Endogenous glucose production was calculated as the difference between the whole body glucose turnover and the exogenous glucose infusion rate (R. N. Bergman et al., Endocr. Rev., 6:45-86, 1985)."}, "estrogen receptor-α": {"target": "estrogen receptor-α (Homo sapiens, UniProt P03372)", "sequence (P03372 whole entry)": "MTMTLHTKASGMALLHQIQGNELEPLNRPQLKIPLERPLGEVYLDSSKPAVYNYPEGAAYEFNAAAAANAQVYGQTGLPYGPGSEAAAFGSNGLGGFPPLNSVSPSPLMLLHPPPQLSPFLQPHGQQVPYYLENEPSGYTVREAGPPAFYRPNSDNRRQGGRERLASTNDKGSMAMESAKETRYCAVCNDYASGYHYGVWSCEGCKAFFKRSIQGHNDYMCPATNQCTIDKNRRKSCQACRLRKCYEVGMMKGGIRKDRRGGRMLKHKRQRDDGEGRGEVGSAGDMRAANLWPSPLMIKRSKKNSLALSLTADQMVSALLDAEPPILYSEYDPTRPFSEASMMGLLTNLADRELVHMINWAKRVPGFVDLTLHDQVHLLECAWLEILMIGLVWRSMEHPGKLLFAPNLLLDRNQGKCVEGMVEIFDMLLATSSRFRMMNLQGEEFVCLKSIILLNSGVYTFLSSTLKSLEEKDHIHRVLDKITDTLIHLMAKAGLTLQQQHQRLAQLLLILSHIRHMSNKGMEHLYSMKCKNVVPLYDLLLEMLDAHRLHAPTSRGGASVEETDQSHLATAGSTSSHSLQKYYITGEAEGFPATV", "assay": "interaction with sex hormone receptor", "format": "binding"}, "estrogen receptor-β": {"target": "estrogen receptor-β (Homo sapiens, UniProt Q92731)", "sequence (Q92731 whole entry, species assumed)": "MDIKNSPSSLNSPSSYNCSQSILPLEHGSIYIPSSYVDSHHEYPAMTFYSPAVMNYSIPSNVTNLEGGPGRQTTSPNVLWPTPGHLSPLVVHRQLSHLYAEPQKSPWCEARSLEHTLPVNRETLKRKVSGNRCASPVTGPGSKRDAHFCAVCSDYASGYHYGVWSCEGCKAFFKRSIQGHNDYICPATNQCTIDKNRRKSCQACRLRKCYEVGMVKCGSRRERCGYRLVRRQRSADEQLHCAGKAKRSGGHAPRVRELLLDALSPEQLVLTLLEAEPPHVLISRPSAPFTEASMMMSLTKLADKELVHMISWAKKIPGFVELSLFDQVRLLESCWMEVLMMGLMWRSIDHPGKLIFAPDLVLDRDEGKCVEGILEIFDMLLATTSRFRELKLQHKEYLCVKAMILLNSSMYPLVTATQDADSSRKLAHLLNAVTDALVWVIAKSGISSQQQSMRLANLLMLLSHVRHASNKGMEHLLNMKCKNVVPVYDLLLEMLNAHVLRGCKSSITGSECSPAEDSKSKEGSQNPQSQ", "assay": "interaction with sex hormone receptor", "format": "binding"}, "[6]": {"test_system": "bone marrow-derived mast cells (BMMC)", "assay": "mast cell stimulus-coupled degranulation (β-glucuronidase release)", "format": "cell-based, Balb/C mice", "details": "no stimulus", "procedure": "In another protocol, a population of mast cells was cultivated from murine bone marrow as follows. Briefly, bone marrows from Balb/C mice were flushed from the femur using PBS and a 27 g needle. The cells were cultured in a mixture of ⅔ RPMI-1640 with 19% FBS and cells that secreted IL-3. The bone marrow cells were allowed to differentiate for 18-25 days in the IL-3-containing mixture before being used for experiments. Bone marrow cells cultured in this manner have a phenotype similar to mucosal mast cells and are referred to as bone marrow-derived mast cells (BMMC).\nThe homogeneity of the in vitro propagated mast cells was checked by conventional flow cytometry techniques and staining for cell-type specific markers. Between days 14 and 21 of propagation, mature mast cells were harvested and prepared for the test cultures. The objective was to assess of the effect of compounds such as dehydroepiandrosterone on mast cell stimulus-coupled degranulation. Prepared mast cells were dispensed into test culture wells at a density of 1×10^7 cells/mL. In control cultures, mast cells were induced to degranulate after cross linking of IgE receptors with IgE antigen-antibody complexes. […] There was no detectable degranulation of mast cells as measured by release of β-glucuronidase from cytosolic storage granules of the cells in the absence of the stimulus. […]"}},
  "data": [
    {"smiles": "C[C@]12CC[C@H]3[C@@H](CCC4=C[C@H](O)CC[C@@H]43)[C@@H]1CC[C@@H]2O", "note": "[4-estrene-3α,17β-diol]", "values": [
      {"measurement": "osteoblast and osteocyte apoptosis", "setting": "[1]", "result": "reduce apoptosis"}
    ]},
    {"smiles": "C[C@]12CC[C@H]3[C@@H]([C@@H](O)C=C4C[C@H](O)CC[C@@]43C)[C@@H]1C[C@@H](O)[C@@H]2O", "note": "[androst-5-ene-3α,7β,16α,17β-tetrol]", "values": [
      {"measurement": "course of EAE compared to vehicle-treated mice", "setting": "EAE", "result": "very similar to that observed in the vehicle-treated mice"},
      {"measurement": "reversal of the decrease in osteoprotegerin synthesis", "setting": "[2]", "result": "normal osteoprotegerin levels at 10 nM"},
      {"measurement": "degree of sulfation and degree of glucuronidation", "setting": "[3]", "result": "low"}
    ]},
    {"smiles": "C[C@]12CC[C@H]3[C@@H]([C@@H](O)C=C4C[C@@H](O)CC[C@@]43C)[C@@H]1C[C@@H](O)[C@@H]2O", "note": "[androst-5-ene-3β,7β,16α,17β-tetrol]", "values": [
      {"measurement": "IL-6 level in BAL vs vehicle", "setting": "[4]", "result": "reduced levels"},
      {"measurement": "MPO level vs vehicle", "setting": "[4]", "result": "reduced levels"},
      {"measurement": "TNFα level in BAL vs vehicle", "setting": "[4]", "result": "reduced levels"},
      {"measurement": "glucose uptake in the gastrocnemius muscle", "setting": "[5]; ^14C-2-deoxyglucose, p<0.05", "result": "more effective"},
      {"measurement": "glucose infusion rate compared to vehicle control", "setting": "[5]; oral gavage 14 days, insulin 10 mU/kg/min", "result": "increased the glucose infusion rate"},
      {"measurement": "course of EAE compared to vehicle-treated mice", "setting": "EAE", "result": "significantly improved course of EAE"},
      {"measurement": "reversal of the decrease in osteoprotegerin synthesis", "setting": "[2]", "result": "normal osteoprotegerin levels at 0.1 μM"},
      {"measurement": "interaction with estrogen receptor-α", "setting": "estrogen receptor-α", "result": "do not interact"},
      {"measurement": "interaction with estrogen receptor-β", "setting": "estrogen receptor-β", "result": "do not interact"},
      {"measurement": "degree of sulfation and degree of glucuronidation", "setting": "[3]", "result": "low"}
    ]},
    {"smiles": "C[C@]12CC[C@H](O)CC1=CC[C@@H]1[C@@H]2CC[C@]2(C)C(=O)CC[C@@H]12", "note": "[dehydroepiandrosterone]", "values": [
      {"measurement": "degranulation with compound alone", "setting": "[6]", "result": "no measurable degranulation"}
    ]}
  ]
}
